Data on one compound can be found in article PMC11502334, “Fungal glyceraldehyde 3-phosphate dehydrogenase GpdC maintains glycolytic mechanism against reactive nitrogen stress-induced damage” (Frontiers in Microbiology, 2024).

Each structure is given as a SMILES string.

For test [1], the target named is T1, rGpdC (GpdC) (Aspergillus nidulans, UniProt Q5BA47).
T1 construct: gene ANIA_02583; recombinant from synthetic E. coli codon-optimized gene, vector pET-21a (Nde I/Hind III), expressed in E. coli BL21 (DE3), HisTrap purified
T1 sequence (Q5BA47 1-354): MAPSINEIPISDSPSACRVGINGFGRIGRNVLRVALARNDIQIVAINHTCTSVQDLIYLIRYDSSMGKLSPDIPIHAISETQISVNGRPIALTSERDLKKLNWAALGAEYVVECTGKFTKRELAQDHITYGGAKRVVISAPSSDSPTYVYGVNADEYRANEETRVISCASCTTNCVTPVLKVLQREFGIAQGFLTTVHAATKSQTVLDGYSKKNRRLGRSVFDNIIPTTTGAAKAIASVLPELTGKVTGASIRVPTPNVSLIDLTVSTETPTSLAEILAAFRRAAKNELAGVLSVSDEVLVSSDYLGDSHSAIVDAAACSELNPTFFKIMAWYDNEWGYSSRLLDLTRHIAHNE
The test is described as follows: residual GAPDH activity after preincubation; biotin-switch assay. The settings on record: covalent (S-nitrosation of thiols); 0–1 mM, 1 h, 25°C, pH 7.5; activity measured with NADP+. It is filed as biochemical.

The target of test [2] is T2, rGpdA (GpdA) (Aspergillus nidulans, UniProt P20445).
T2 construct: recombinant from cDNA, vector pET-21a, expressed in E. coli BL21 (DE3), HisTrap purified
The test is described as above. It is filed as biochemical. Conditions: covalent (S-nitrosation of thiols); 0–1 mM, 1 h, 25°C, pH 7.5; activity measured with NAD+.

T2 sequence (P20445 whole entry): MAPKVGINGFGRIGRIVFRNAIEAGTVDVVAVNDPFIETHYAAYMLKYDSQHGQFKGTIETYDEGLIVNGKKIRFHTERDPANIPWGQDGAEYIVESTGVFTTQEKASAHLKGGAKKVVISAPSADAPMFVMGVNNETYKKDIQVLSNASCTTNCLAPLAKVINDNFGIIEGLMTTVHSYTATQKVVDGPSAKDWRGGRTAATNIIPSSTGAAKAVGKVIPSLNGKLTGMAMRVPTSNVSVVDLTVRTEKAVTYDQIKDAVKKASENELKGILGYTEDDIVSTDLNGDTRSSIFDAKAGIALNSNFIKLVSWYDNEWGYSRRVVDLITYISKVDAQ

As for `N[C@@H](CCC(=O)N[C@@H](CSN=O)C(=O)NCC(=O)O)C(=O)O` [GSNO], the “residual GAPDH activity after preincubation; biotin-switch assay” value is “GSNO modified the thiol residues of rGpdA and rGpdC to S-nitrosothiol and impaired enzyme activity” in test [1]; “GSNO modified the thiol residues of rGpdA and rGpdC to S-nitrosothiol and impaired enzyme activity” in test [2].
